pIC50: −log10 of the molar value.
Columns and labels:
[1] = target: T1, EPHB3 (Homo sapiens, UniProt P54753); assay: Kinase panel profiling at 1 µmol/L (mobility shift assay, Carna); assay type: biochemical; conditions: 1 µmol/L of BTK inhibitor
T1 construct: purchased Carna Biosciences
T1 sequence (P54753 34-998): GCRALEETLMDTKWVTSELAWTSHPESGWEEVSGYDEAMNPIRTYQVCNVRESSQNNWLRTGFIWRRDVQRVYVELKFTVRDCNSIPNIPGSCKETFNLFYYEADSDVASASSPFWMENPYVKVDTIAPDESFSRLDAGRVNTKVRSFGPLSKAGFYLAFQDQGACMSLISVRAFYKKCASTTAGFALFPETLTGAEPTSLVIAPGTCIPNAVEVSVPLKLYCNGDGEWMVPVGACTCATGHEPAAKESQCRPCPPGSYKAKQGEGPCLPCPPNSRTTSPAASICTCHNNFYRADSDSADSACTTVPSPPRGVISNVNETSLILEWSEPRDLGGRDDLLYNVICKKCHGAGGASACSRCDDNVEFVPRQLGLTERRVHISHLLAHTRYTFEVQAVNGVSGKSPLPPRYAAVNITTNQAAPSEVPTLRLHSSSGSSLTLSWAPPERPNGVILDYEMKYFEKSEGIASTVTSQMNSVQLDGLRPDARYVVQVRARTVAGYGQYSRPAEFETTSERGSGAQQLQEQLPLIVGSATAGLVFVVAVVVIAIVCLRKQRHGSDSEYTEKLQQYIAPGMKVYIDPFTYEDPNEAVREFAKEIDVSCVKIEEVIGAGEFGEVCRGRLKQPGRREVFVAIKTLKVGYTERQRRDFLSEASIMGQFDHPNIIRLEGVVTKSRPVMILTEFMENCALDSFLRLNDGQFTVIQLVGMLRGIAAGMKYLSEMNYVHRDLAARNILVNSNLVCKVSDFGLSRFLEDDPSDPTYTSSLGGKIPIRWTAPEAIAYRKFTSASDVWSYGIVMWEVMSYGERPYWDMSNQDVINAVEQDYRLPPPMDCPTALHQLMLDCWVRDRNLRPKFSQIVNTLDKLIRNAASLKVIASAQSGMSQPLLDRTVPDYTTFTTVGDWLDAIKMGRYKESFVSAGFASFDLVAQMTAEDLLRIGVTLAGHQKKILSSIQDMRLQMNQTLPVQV

[2] = target: T2, FER (Homo sapiens, UniProt P16591); assay: as above; assay type: biochemical; conditions: 1 µmol/L of BTK inhibitor
T2 construct: purchased Carna Biosciences

[3] = target: T3, KIT (Homo sapiens, UniProt P10721); assay: as above; assay type: biochemical; conditions: 1 µmol/L of BTK inhibitor
T3 construct: purchased Carna Biosciences

[4] = target: T4, MER (Homo sapiens, UniProt Q12866); assay: as above; assay type: biochemical; conditions: 1 µmol/L of BTK inhibitor
T4 construct: purchased Carna Biosciences
T4 sequence (Q12866 21-999): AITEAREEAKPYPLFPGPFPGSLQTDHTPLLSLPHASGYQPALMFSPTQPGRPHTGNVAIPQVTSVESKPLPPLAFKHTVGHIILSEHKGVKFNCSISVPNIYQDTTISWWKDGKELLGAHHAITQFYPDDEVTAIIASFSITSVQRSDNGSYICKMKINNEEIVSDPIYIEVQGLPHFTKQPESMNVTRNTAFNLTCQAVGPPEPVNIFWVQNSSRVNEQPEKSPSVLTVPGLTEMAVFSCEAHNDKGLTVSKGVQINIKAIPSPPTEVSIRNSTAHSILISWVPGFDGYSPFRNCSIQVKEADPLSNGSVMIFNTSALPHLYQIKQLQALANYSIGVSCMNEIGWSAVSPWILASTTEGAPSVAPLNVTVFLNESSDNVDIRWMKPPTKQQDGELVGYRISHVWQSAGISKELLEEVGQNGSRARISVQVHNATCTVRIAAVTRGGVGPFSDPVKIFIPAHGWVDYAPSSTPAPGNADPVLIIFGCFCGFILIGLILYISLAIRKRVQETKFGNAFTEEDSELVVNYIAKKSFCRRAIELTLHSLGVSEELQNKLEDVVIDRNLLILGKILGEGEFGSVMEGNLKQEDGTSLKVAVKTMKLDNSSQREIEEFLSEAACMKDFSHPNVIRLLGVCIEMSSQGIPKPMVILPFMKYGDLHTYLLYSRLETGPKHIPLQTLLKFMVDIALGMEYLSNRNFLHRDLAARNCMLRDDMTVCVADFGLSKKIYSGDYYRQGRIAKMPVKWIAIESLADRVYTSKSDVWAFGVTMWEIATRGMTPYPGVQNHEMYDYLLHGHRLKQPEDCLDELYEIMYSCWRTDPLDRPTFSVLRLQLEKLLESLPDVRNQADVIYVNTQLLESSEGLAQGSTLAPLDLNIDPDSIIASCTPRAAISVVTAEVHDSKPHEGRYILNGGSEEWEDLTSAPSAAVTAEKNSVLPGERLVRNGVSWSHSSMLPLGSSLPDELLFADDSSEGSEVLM

[5] = target: T5, TRKC (Homo sapiens, UniProt Q16288); assay: as above; assay type: biochemical; conditions: 1 µmol/L of BTK inhibitor
T5 construct: purchased Carna Biosciences

[6] = target: T6, p38α (Homo sapiens, UniProt Q16539); assay: as above; assay type: biochemical; conditions: 1 µmol/L of BTK inhibitor
T6 construct: purchased Carna Biosciences

[7] = target: T7, SGK3 (Homo sapiens, UniProt Q96BR1); assay: as above; assay type: biochemical; conditions: 1 µmol/L of BTK inhibitor
T7 construct: purchased Carna Biosciences
T7 sequence (Q96BR1 1-496): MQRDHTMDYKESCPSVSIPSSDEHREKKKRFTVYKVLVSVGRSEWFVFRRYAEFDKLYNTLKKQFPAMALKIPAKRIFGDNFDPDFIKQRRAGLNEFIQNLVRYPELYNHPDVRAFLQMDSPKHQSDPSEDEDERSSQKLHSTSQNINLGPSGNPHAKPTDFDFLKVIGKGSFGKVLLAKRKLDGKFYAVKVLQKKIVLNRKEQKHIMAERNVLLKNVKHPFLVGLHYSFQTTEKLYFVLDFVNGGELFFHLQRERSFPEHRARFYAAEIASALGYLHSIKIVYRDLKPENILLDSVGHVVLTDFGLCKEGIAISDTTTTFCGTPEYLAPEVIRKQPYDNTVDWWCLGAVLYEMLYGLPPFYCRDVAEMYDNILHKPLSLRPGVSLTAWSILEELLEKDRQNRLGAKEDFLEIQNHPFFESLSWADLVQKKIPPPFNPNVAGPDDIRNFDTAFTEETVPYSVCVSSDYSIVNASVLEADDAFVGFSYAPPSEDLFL

[8] = target: FGFR2 (Homo sapiens, UniProt P21802); assay: Kinase enzyme activity assay (mobility shift assay, Carna); conditions: for Percentage inhibition of kinase enzyme activity: FGFR2, 1 µmol/L of BTK inhibitor
[9] = target: Aurora B (Homo sapiens, UniProt Q96GD4); assay: Kinase panel profiling at 1 µmol/L (mobility shift assay, Carna); conditions: for Percentage inhibition of kinase enzyme activity: AurB, 1 µmol/L of BTK inhibitor
Chain of Aurora B (Q96GD4 whole entry): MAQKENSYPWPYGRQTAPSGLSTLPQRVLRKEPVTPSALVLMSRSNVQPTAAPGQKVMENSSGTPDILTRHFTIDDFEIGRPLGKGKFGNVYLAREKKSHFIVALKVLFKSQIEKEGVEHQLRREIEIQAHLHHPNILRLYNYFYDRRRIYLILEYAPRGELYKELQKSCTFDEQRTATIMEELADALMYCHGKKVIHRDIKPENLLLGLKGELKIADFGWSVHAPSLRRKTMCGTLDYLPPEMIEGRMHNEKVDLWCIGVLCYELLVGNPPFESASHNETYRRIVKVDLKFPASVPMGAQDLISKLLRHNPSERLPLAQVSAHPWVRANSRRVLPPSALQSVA
Chain of Aurora B (Q9NQS7 803-916 partner limits assumed): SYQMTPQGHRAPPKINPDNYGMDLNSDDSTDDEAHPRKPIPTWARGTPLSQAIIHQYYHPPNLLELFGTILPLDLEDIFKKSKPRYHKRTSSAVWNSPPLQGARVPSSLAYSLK

T5 sequence (Q16288 32-839): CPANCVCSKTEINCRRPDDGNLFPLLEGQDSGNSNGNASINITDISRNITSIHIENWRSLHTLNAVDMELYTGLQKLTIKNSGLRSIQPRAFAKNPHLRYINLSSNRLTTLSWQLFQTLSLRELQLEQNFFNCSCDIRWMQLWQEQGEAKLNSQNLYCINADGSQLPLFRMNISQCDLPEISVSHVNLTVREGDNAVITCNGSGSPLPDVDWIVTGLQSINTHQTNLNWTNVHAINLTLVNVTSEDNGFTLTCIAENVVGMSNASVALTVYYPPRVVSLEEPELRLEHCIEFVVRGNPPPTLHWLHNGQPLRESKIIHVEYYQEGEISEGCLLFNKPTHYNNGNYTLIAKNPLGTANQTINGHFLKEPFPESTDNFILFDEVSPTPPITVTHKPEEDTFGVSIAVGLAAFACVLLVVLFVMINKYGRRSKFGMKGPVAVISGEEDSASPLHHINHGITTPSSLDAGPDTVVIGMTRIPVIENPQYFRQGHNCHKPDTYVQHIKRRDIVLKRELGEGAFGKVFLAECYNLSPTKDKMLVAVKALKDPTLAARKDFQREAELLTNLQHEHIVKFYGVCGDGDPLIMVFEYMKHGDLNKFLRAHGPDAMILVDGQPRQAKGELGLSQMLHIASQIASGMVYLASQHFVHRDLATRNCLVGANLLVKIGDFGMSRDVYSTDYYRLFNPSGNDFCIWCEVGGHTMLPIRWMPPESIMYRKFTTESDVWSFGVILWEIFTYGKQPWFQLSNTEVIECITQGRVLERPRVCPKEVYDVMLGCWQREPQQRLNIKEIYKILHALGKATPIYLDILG
T3 sequence (P10721 26-976): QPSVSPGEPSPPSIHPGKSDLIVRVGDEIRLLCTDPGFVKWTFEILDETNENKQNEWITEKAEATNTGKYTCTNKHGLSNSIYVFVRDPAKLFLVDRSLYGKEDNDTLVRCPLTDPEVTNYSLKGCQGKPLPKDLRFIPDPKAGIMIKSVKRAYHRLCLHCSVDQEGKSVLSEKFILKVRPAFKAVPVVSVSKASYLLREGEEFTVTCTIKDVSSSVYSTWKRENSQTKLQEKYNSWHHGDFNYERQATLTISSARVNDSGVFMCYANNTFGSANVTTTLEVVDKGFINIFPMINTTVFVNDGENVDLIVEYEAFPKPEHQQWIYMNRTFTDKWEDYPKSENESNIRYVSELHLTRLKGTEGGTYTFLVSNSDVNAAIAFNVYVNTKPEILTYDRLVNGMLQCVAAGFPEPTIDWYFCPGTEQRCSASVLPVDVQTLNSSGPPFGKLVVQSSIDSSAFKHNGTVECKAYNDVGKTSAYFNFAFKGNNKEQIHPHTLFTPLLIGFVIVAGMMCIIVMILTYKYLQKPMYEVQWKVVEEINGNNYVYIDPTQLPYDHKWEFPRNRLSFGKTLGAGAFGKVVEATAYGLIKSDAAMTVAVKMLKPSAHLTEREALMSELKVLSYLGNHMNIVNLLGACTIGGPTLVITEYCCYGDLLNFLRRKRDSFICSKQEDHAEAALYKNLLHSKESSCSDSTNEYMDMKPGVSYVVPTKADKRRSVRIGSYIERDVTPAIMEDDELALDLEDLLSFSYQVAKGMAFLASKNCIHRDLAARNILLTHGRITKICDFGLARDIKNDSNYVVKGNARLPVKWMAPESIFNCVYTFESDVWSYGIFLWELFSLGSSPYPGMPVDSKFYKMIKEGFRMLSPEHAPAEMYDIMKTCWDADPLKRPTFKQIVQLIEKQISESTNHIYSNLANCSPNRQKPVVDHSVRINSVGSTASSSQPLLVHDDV
T6 sequence (Q16539 whole entry): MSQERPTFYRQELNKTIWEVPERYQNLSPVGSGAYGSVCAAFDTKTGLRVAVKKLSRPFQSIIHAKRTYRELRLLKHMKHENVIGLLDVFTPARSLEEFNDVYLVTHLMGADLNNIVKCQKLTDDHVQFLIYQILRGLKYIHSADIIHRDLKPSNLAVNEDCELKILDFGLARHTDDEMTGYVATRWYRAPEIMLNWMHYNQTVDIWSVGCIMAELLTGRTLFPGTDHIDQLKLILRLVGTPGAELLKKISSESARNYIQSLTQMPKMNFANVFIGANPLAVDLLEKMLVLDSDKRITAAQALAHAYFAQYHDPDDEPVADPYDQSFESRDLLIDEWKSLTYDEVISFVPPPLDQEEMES
T2 sequence (P16591 whole entry): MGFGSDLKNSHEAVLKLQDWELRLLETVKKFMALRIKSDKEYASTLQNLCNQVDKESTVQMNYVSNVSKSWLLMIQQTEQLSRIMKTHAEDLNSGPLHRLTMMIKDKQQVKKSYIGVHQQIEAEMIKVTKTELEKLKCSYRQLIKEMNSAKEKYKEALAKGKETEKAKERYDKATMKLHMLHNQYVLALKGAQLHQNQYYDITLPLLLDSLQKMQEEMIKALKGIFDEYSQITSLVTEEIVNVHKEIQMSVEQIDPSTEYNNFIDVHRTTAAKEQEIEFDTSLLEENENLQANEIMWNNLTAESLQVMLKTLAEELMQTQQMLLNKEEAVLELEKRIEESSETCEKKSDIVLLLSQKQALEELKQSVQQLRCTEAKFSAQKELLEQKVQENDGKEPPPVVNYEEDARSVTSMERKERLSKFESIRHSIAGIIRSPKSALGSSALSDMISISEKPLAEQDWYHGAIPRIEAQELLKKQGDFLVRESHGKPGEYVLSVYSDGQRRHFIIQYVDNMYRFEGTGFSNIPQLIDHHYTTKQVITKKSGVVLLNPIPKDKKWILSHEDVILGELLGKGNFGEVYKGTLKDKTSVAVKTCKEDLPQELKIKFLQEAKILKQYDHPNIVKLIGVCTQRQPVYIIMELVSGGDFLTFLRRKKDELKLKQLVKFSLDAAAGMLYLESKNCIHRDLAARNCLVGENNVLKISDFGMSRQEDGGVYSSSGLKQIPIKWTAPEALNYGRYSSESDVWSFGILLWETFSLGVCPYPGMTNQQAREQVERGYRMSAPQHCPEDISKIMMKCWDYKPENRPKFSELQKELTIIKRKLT
Chain of FGFR2 (P21802 22-821): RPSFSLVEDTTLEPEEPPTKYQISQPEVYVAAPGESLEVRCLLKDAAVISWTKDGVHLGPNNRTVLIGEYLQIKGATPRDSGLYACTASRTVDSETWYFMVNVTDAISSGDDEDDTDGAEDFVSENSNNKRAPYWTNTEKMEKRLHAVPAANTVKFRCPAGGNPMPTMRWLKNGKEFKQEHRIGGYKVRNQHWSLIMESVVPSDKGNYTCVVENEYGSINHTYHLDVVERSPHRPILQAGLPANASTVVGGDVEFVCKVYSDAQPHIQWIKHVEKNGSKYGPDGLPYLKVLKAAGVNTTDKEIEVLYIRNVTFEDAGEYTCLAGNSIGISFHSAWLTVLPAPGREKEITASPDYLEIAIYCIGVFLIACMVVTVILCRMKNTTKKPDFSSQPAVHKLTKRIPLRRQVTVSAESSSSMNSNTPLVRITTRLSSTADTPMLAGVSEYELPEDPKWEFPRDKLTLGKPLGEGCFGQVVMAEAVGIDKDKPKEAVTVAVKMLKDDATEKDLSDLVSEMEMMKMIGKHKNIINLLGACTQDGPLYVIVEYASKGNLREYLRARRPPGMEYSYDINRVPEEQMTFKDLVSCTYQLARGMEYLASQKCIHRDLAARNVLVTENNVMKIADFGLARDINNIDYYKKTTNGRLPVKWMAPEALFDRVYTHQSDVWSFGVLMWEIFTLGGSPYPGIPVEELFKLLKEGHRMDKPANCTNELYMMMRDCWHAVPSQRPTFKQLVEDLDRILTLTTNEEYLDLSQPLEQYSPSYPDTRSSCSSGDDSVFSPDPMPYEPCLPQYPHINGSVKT

SMILES	Percentage inhibition of kinase enzyme activity [1]	Percentage inhibition of kinase enzyme activity [2]	Percentage inhibition of kinase enzyme activity [3]	Percentage inhibition of kinase enzyme activity [4]	Percentage inhibition of kinase enzyme activity [5]	Percentage inhibition of kinase enzyme activity [6]	Percentage inhibition of kinase enzyme activity [7]	Percentage inhibition of kinase enzyme activity [8]	Percentage inhibition of kinase enzyme activity [9]	pIC50 [8]	inhibition at 1 µM ([9]; read-out: Inhibition of Aurora B)
CC#CC(=O)N1CCC[C@H]1c1nc(-c2ccc(C(=O)Nc3ccccn3)cc2)c2c(N)nccn12 [acalabrutinib]	1.64%	-2.54%	2.89%	-3.37%	11.12%	-0.75%	-11.85%	-6.22%	10.86%	–	–
C=CC(=O)N1CCC[C@@H](n2nc(-c3ccc(Oc4ccccc4)cc3)c3c(N)ncnc32)C1 [ibrutinib]	2.93%	–	-4.53%	–	23.90%	-2.71%	0.58%	81.29%	-1.10%	–	–
O=C(c1ccc(Oc2ccccc2)cc1Cl)c1c[nH]c2ncnc(N[C@@H]3CC[C@@H](CO)OC3)c12 [nemtabrutinib]	73.92%	96.49%	78.81%	29.53%	99.56%	2.09%	-3.28%	45.29%	57.52%	7.47	–
C=CC(=O)N1CCC([C@@H]2CCNc3c(C(N)=O)c(-c4ccc(Oc5ccccc5)cc4)nn32)CC1 [zanubrutinib]	-2.82%	1.42%	-2.78%	-2.35%	–	–	–	1.70%	–	–	–
COc1ccc(F)cc1C(=O)NCc1ccc(-c2nn([C@@H](C)C(F)(F)F)c(N)c2C(N)=O)cc1 [pirtobrutinib]	34.88%	7.19%	-5.95%	-2.75%	5.23%	-2.18%	-2.68%	12.14%	88.69%	–	> 75%
